According to US10617679B2, “Deuterated compounds and medical uses thereof” (JINGLUWEIDAI INFORMATION CONSULTING SERVICE (BEIJING) CO. …, priority 2016, dated 2020):

Assays:
rat formalin model = assay: Analgesic effects of intragastric administration in a rat formalin model; type: in vivo, SD rats; conditions: mean ± SD; for Reaction time for phase I: licking time 0-5 min after formalin; for Reaction time for Phase II: licking time 15-30 min after formalin
Procedure: SD rats (male, weight 160-180 g) were randomly divided into groups with 6 rats in each group. After the rats were intragastrically administered different doses separately, they were placed in PVC observation boxes for habituation. After 30 min, the rats were injected subcutaneously with 20 μL of 2.7% formalin solution into the plantar surface of the left hind paws, and quickly put back in the PVC observation boxes for observation. The length of time the rats spent licking the injected-formalin paws at the early response (0-5 min, phase I) and the late response (15-30 min, Phase II) was recorded, and the analgesic activities of the test compounds were evaluated according to the length of time the rats spent licking during the period of observation. The experimental data were expressed as mean±standard deviation. The shorter the licking time, the better the analgesic effect of the compound.

[1] = tested on: rat chronic sciatic nerve compression neuralgia model; assay: Analgesic effects of intragastric administration in a rat chronic sciatic nerve compression neuralgia model; type: in vivo, SD rats; conditions: pain threshold 1 hour after administration
Procedure: SD rats (male, weight 160-180 g) were anesthetized using sodium pentobarbital (40 mg/kg), of which the sciatic nerves were separated in the middle segment of the right hind limbs. In the anterior segment of the sciatic nerve to be bifurcated, the sciatic nerve was separated from the surrounding tissue using a sterile glass hook. Four rings were loosely ligated with sterile chrome gut (No. 4, 0.15 mm in diameter) by an interval of 1 to 2 mm. Topically sprinkled with penicillin powder. The muscle tissue and skin were sutured. The rats were placed in a cage with cork dust. In the sham surgery group, the sciatic nerve was only exposed, and the other treatments were the same as described above. The rats after surgery were placed in a metal cage. […] The weight of the filament was recorded and set to be the threshold (in g). Meanwhile, the number of foot-lifting response to the 10 stimulations of the fiber filaments of different weights was recorded, and the highest threshold was set at 26 g.
5-6 rats in each group were intragastrically administered and the pain thresholds were measured 1 hour after administration. Statistical analysis of the thresholds was performed using non-parametric Wilcoxon 2-Sample Test and Kruskal-Wallis Test, and the data was analyzed with SASS data processing software. Analgesic percent (%)=(pain threshold after drug treatment−pain threshold before drug treatment)/(maximal analgesia threshold−pain threshold before drug treatment)[…].

[2] = tested on: oxycodone-induced place preference in rats; assay: Inhibition of oxycodone-induced place preference in rats; type: in vivo, SD rats; conditions: day 10, within 15 minutes
Procedure: SD rats (male, weight 160-180 g) were placed in conditioned place preference (CPP) training boxes, where the partition door between the boxes was open. Time the rats spent in each of the boxes was recorded within 15 min in order to determine the natural tendency of the rats. The rats were then randomly divided into groups with 10 rats in each group according to the amount of time spent in the white box. The white box was a drug box, and the black box was a box with the absence of the drug. After intragastric administration with a test compound for 40 minutes, the rats were injected subcutaneously with oxycodone (2.5 mg/kg, s.c.) or saline, and immediately placed in the white box or the black box to be trained for 45 minutes, once a day for 9 consecutive days. On the 10th day, the rats were placed in the training boxes with the partition door open. The time the rats spent in the white box was recorded within 15 minutes to evaluate effects on place preference in the rats.

blood pressure in rats = assay: Effects on blood pressure in rats; type: in vivo, SD rats
Procedure: (§1) SD rats (male, weight 160-180 g) were fasted for 12 hours before administration but had free access to drinking water. The rats were randomly divided into groups. They were anesthetized with an intraperitoneal injection of 50-60 mg/kg dose of sodium pentobarbital. Each rat was fixed on the back on the surgical table. The skin was cut from the center of the neck, and an incision of about 2.5 cm was made. The subcutaneous tissue and the median muscle were separated; the trachea was fully exposed; and the endotracheal intubation was performed. The subcutaneous tissue was separated from front to back on the right side; the right common carotid artery, the vagus nerve and the sympathetic nerve were exposed; and the carotid artery cannulation was performed. Finally, the endotracheal tube and the carotid artery cannula were respectively connected to a respiration transducer and a blood pressure transducer, and then connected to a multifunctional physiological recorder. At 30 minutes after surgery, the rats were intragastrically administrated. Heart rate and blood pressure were measured at different time points after administration.

heart rate in rats = assay: Effects on heart rate in rats; type: in vivo, SD rats
Procedure: as §1

Wistar rats = assay: Evaluation of subacute toxicity (14 days, intragastric); type: in vivo; conditions: 40 mg/kg intragastric once a day for 14 days; for ALT / AST: rat
Procedure: Male Wistar rats were randomly divided into groups with 10 rats in each group and weighed. A certain concentration of a test sample was ground and suspended in a 0.5% sodium carboxymethyl cellulose solution. The sodium carboxymethyl cellulose suspension containing 40 mg/kg of the test compound and a blank sodium carboxymethyl cellulose suspension as a control were intragastrically administered, once a day for 14 consecutive days. After the last administration, the rats were fasted but had free access to drinking water for 12 hours, and then anesthetized. Their blood samples were obtained from the abdominal aortas. According to SOPB093 “Standard Operating Procedures for Serum Preparation” in National Beijing Center for Drug Safety Evaluation and Research, serum was prepared for the determination of blood biochemical and immunological indicators; according to SOPB032 “Preparation of vacuum tubes with EDTA anticoagulation”, EDTA anticoagulation was prepared for the general blood routine tests.

[3] = test dose 10 mg/kg intragastric + oxycodone 2.5 mg/kg s.c.
[4] = test dose 20 mg/kg intragastric + oxycodone 2.5 mg/kg s.c.
[5] = 20 mg/kg intragastric, time point 0
[6] = 20 mg/kg intragastric, time point 30
[7] = 20 mg/kg intragastric, time point 60
[8] = 20 mg/kg intragastric, time point 90
[9] = 20 mg/kg intragastric, time point 120
[10] = 20 mg/kg intragastric, time point 180
[11] = 40 mg/kg intragastric, time point 0
[12] = 40 mg/kg intragastric, time point 60
[13] = 40 mg/kg intragastric, time point 90
[14] = 40 mg/kg intragastric, time point 120
[15] = 40 mg/kg intragastric, time point 180
[16] = 40 mg/kg intragastric, time point 30

SMILES | Reaction time for phase I (rat formalin model; 20 mg/kg intragastric) [s] | Reaction time for Phase II (rat formalin model; 20 mg/kg intragastric) [s] | Reaction time for phase I (rat formalin model; 40 mg/kg intragastric) [s] | Reaction time for Phase II (rat formalin model; 40 mg/kg intragastric) [s] | Analgesic percent ([1]; 20 mg/kg intragastric) [%] | Analgesic percent ([1]; 40 mg/kg intragastric) [%] | Time spent in the drug box (Mean ± S) [2, 3] [s] | Time spent in the drug box (Mean ± S) [2, 4] [s] | Blood pressure (blood pressure in rats; [5]) [mmHg] | Blood pressure (blood pressure in rats; [6]) [mmHg] | Blood pressure (blood pressure in rats; [7]) [mmHg] | Blood pressure (blood pressure in rats; [8]) [mmHg] | Blood pressure (blood pressure in rats; [9]) [mmHg] | Blood pressure (blood pressure in rats; [10]) [mmHg] | Blood pressure (blood pressure in rats; [11]) [mmHg] | Blood pressure (blood pressure in rats; [12]) [mmHg] | Blood pressure (blood pressure in rats; [13]) [mmHg] | Blood pressure (blood pressure in rats; [14]) [mmHg] | Blood pressure (blood pressure in rats; [15]) [mmHg] | Heart rate (heart rate in rats; [5]) [BTM] | other results
[2H]C([2H])([2H])Oc1cc2c(cc1OC([2H])([2H])[2H])[C@@H]1Cc3ccc(OC([2H])([2H])[2H])c(OC([2H])([2H])[2H])c3CN1CC2 [Formula I7, (13a S)-2,3,9,10-tetra-[(trideutero)-methoxy]-6,8,13,13a-tetrahydro-5H-isoquinolino[2,1-b]isoquinoline] | 45.2 ± 9.9 | 58.2 ± 12.5 | 35.7 ± 9.0 | 35.9 ± 13.6 | 70.67 | 73.53 | 154.32 ± 21.38 | 135.40 ± 25.09 | 112.6 ± 27.5 | 103.4 ± 11.7 | 104.2 ± 9.8 | 102.6 ± 7.2 | 114.1 ± 11.3 | 135.3 ± 15.6 | 113.0 ± 11.4 | 83.5 ± 7.2 | 82.6 ± 6.5 | 95.3 ± 9.5 | 101.8 ± 8.1 | 401.5 ± 32.1 | Heart rate (heart rate in rats; [6]): 380.8 ± 33.4 BTM; Heart rate (heart rate in rats; [7]): 389.5 ± 26.6 BTM; Heart rate (heart rate in rats; [8]): 405.3 ± 31.0 BTM; Heart rate (heart rate in rats; [9]): 391.0 ± 24.9 BTM; Heart rate (heart rate in rats; [10]): 398.5 ± 28.8 BTM; Heart rate (heart rate in rats; [11]): 407.9 ± 29.5 BTM; Heart rate (heart rate in rats; [16]): 366.8 ± 27.7 BTM; Heart rate (heart rate in rats; [12]): 332.6 ± 24.9 BTM; Heart rate (heart rate in rats; [13]): 343.2 ± 21.0 BTM; Heart rate (heart rate in rats; [14]): 356.7 ± 25.8 BTM; Heart rate (heart rate in rats; [15]): 362.0 ± 32.1 BTM; ALT (Wistar rats): 84.5 ± 20.6 U/L; AST (Wistar rats): 143.8 ± 21.0 U/L; plasma ALT and AST versus control group (Wistar rats; result in words): no significant difference
[2H]C([2H])([2H])Oc1cc2c(cc1OC)CCN1Cc3c(ccc(OC([2H])([2H])[2H])c3OC)C[C@@H]21 [Formula I6, (13a S)-3,9-dimethoxy-2,10-di-[(trideutero)-methoxy]-6,8,13,13a-tetrahydro-5H-isoquinolino[2,1-b]isoquinoline] | 41.9 ± 9.2 | 66.7 ± 8.7 | 38.6 ± 9.4 | 40.3 ± 9.0 | 63.80 | 69.12 | 183.27 ± 33.97 | 129.35 ± 23.66 | 115.6 ± 21.9 | 108.5 ± 10.75 | 102.0 ± 11.4 | 104.7 ± 10.70 | 110.5 ± 6.8 | 106.5 ± 13.7 | 111.0 ± 21.4 | 83.5 ± 10.30 | 85.2 ± 8.0 | 110.00 ± 11.6 | 109.5 ± 14.1 | 407.1 ± 43.4 | Blood pressure (blood pressure in rats; [16]): 95.4 ± 14.5 mmHg; Heart rate (heart rate in rats; [6]): 400.2 ± 29.4 BTM; Heart rate (heart rate in rats; [7]): 401.0 ± 28.47 BTM; Heart rate (heart rate in rats; [8]): 403.0 ± 30.2 BTM; Heart rate (heart rate in rats; [9]): 396.7 ± 36.3 BTM; Heart rate (heart rate in rats; [10]): 402.5 ± 28.8 BTM; Heart rate (heart rate in rats; [11]): 414.1 ± 37.6 BTM; Heart rate (heart rate in rats; [16]): 375.8 ± 29.3 BTM; Heart rate (heart rate in rats; [12]): 362.8 ± 20.7 BTM; Heart rate (heart rate in rats; [13]): 367.2 ± 27.0 BTM; Heart rate (heart rate in rats; [14]): 393.5 ± 34.6 BTM; Heart rate (heart rate in rats; [15]): 380.8 ± 30.5 BTM; ALT (Wistar rats): 165.3 ± 38.0 U/L; AST (Wistar rats): 251.8 ± 32.0 U/L; histopathological examination of liver (Wistar rats; result in words): vacuolar degeneration of hepatocytes; plasma ALT and AST versus control group (Wistar rats; result in words): significant increase
